What was measured:
[1] = target: T1, glucocorticoid receptor (GR), recombinant full-length receptor protein (Homo sapiens, UniProt P04150); assay: Glucocorticoid receptor binding assay (fluorescence polarization kit); settings: 4 nM receptor, 2.5 nM Fluormone GS1 tracer, 2h room temperature, read-out: GR binding ABS IC50
T1 construct: 4 nM recombinant, full-length receptor protein was incubated with increasing concentrations of GR ligand; purchased Life Technologies A-15897
T1 sequence (P04150 1-777): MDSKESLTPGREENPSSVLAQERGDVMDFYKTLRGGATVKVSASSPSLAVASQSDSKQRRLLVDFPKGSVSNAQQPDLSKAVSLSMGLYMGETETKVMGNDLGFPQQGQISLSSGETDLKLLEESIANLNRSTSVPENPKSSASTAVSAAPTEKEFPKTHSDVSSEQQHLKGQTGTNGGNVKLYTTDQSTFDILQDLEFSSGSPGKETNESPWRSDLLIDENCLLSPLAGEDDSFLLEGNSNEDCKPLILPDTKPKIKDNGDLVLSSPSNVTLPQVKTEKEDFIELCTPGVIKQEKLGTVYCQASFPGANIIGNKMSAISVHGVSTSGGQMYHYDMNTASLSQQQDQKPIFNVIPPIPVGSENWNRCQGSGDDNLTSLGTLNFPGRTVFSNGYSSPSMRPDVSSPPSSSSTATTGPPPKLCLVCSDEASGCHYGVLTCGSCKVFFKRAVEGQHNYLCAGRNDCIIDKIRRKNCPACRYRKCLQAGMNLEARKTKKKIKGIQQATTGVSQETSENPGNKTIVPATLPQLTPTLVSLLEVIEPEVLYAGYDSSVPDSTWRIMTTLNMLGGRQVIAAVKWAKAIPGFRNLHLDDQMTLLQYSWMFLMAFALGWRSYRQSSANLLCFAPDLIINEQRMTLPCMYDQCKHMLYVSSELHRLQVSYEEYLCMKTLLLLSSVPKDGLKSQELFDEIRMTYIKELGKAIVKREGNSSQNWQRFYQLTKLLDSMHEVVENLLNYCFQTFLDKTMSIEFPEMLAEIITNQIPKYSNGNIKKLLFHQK
Method: Test compounds were diluted in DMSO over seven orders of magnitude, further diluted in assay buffer and distributed into 384-well plates. The sensitivity limit of this assay was 2-4 nM.
Data were processed by sigmoidal curve fitting.
Absolute (Abs) IC50 and Emax were determined from the curve fits.

[2] = system: TNF alpha release from human PBMCs; assay: Inhibition of TNF alpha release from human PBMCs; format: cell-based; settings: LPS 1 μg/ml, 18 hours, AlphaLISA
Method: PBMC were isolated from fresh buffy coats by density centrifugation using lymphoprep (Medinor AB, cat no 1019818) tubes. Isolated PBMCs were washed in assay medium (RPMI1640 with 25 mM HEPES, 1% pen/strep, 200 mM L glutamine and 10% Foetal calf serum). Surplus PBMCs were frozen in medium containing extra 10% foetal calf serum and 5% DMSO. On the assay day, fresh cells or cryopreserved cells after thawing were washed in serum free medium (RPMI1640 with 25 mM HEPES, 1% pen/strep, 200 mM L glutamine and 0.5% human serum albumin) and counted, in order to determine the fraction of living cells (generally >95%).
Test compounds were diluted in DMSO over seven orders of magnitude, further diluted in serum-free medium and distributed into wells of 384 well tissue culture plates. LPS was added to a final concentration of 1 μg/ml to the cells. Immediately thereafter titrated test compounds were added and incubated for 18 hours at 37° C.
The level of TNF-a in the culture supernatant was quantitated by AlphaLISA (Perkin Elmer). 2-(3,5-dichloro-4-pyridinyl)-1-(7-methoxyspiro[1,3-benzodioxole-2,1′-cyclopentan]-4-yl)-ethanone (CAS 185406-34-2) at 100×IC50 was used to define the assay window.
Data were processed by sigmoidal curve fitting. EC50 and Emax were determined from the curve fits.

[3] = Human liver microsomes (HLM) assay; format: in vitro ADME; settings: hepatic extraction ratio; 0.5 μM compound, 0.5 mg/mL microsomes, NADPH, 37° C.
Method: Incubations of test compounds in DMSO, diluted with phosphate buffer, pH 7.4, at 0.5 μM were carried out with human liver microsomes (0.5 mg/mL). The percentage of organic solvent in the incubations was 1%. The human liver microsomal suspension in phosphate buffer was mixed with NADPH (1 mM) and preheated to 37° C. before test compound was added. Aliquots were taken at 0, 5, 10, 20 and 30 minutes, and reactions were terminated by addition of methanol containing analytical internal standard (IS).
The results were expressed as apparent clearance (Clapp) (mL/min/kg) and hepatic extraction ratio (Eh) (%) calculated from the rate constant (k) (min^−1) of test compound depletion.

Structure (SMILES) | IC50 [1] [nM] | HLM assay Eh (%) [3] | EC50 ([2]; PBMC) [nM] | EC50 [2] [nM]
CC[C@@H](O)C(=O)N[C@@H](C)[C@H](Oc1ccc(C(=O)N[C@H]2CCCN(C(=O)[C@H]3COC(=O)C3)C2)nc1)c1ccc(C2CC2)cc1 [Compound 13, 5-[(1R,2S)-1-(4-cyclopropylphenyl)-2-[[(2R)-2-hydroxybutanoyl]amino]propoxy]-N-[(3S)-1-[(3R)-5-oxotetrahydrofuran-3-carbonyl]-3-piperidyl]pyridine-2-carboxamide] | 100 to 300 | * (extraction ratio (Eh)>90%) | < 100 | –
C[C@H](NC(=O)C1(O)CCC1)[C@H](Oc1ccc(C(=O)N[C@H]2CCCN(C(=O)[C@H]3COC(=O)C3)C2)nc1)c1ccc(C2CC2)cc1 [Compound 17, 5-[(1R,2S)-1-(4-cyclopropylphenyl)-2-[(1-hydroxycyclobutanecarbonyl)amino]propoxy]-N-[(3S)-1-[(3R)-5-oxotetrahydrofuran-3-carbonyl]-3-piperidyl]pyridine-2-carboxamide] | 100 to 300 | * (extraction ratio (Eh)>90%) | < 100 | –
C[C@H](NC(=O)c1csnn1)[C@H](Oc1ccc(C(=O)O[C@H]2CCCN(C(=O)[C@H]3COC(=O)C3)C2)cc1)c1ccc(C2CC2)cc1 [Compound 52, [(3S)-1-[(3R)-5-oxotetrahydrofuran-3-carbonyl]-3-piperidyl] 4-[(1R,2S)-1-(4-cyclopropylphenyl)-2-(thiadiazole-4-carbonylamino)propoxy]benzoate] | < 100 | * (extraction ratio (Eh)>90%) | – | < 100
Cc1ncsc1C(=O)N[C@@H](C)[C@H](Oc1ccc(C(=O)O[C@H]2CCCN(C(=O)[C@H]3COC(=O)C3)C2)cc1)c1ccc(C2CC2)cc1 [Compound 30, [(3S)-1-[(3R)-5-oxotetrahydrofuran-3-carbonyl]-3-piperidyl] 4-[(1R,2S)-1-(4-cyclopropylphenyl)-2-[(4-methylthiazole-5-carbonyl)amino]propoxy]benzoate] | < 100 | * (extraction ratio (Eh)>90%) | 100 to 300 | –
Cc1ncc(C(=O)N[C@@H](C)[C@H](Oc2ccc(C(=O)O[C@H]3CCCN(C(=O)[C@H]4COC(=O)C4)C3)cc2)c2ccc(C3CC3)cc2)s1 [Compound 36, [(3S)-1-[(3R)-5-oxotetrahydrofuran-3-carbonyl]-3-piperidyl] 4-[(1R,2S)-1-(4-cyclopropylphenyl)-2-[(2-methylthiazole-5-carbonyl)amino]propoxy]benzoate] | < 100 | * (extraction ratio (Eh)>90%) | < 100 | –
C[C@H](NC(=O)c1ccn(C)n1)[C@H](Oc1ccc(C(=O)O[C@H]2CCCN(C(=O)[C@H]3COC(=O)C3)C2)cc1)c1ccc(C2CC2)cc1 [Compound 57, [(3S)-1-[(3R)-5-oxotetrahydrofuran-3-carbonyl]-3-piperidyl] 4-[(1R,2S)-1-(4-cyclopropylphenyl)-2-[(1-methylpyrazole-3-carbonyl)amino]propoxy]benzoate] | < 100 | * (extraction ratio (Eh)>90%) | < 100 | –

Now from value to compound, other results behind:

IC50 [1] [nM] | HLM assay Eh (%) [3] | Structure (SMILES) | EC50 ([2]; PBMC) [nM] | EC50 [2] [nM]
< 100 | * (extraction ratio (Eh)>90%) | C[C@H](NC(=O)c1ccsn1)[C@H](Oc1ccc(C(=O)N[C@H]2CCCN(C(=O)[C@H]3COC(=O)C3)C2)nc1)c1ccc(C2CC2)cc1 [Compound 4, N-[(1S,2R)-2-(4-cyclopropylphenyl)-1-methyl-2-[[6-[[(3S)-1-[(3R)-5-oxotetrahydrofuran-3-carbonyl]-3-piperidyl]carbamoyl]-3-pyridyl]oxy]ethyl]isothiazole-3-carboxamide] | < 100 | –
< 100 | * (extraction ratio (Eh)>90%) | C[C@H](NC(=O)c1ncon1)[C@H](Oc1ccc(C(=O)O[C@H]2CCCN(C(=O)[C@H]3COC(=O)C3)C2)cc1)c1ccc(C2CC2)cc1 [Compound 39, [(3S)-1-[(3R)-5-oxotetrahydrofuran-3-carbonyl]-3-piperidyl] 4-[(1R,2S)-1-(4-cyclopropylphenyl)-2-(1,2,4-oxadiazole-3-carbonylamino)propoxy]benzoate] | < 100 | –
< 100 | * (extraction ratio (Eh)>90%) | Cc1cc(C(=O)N[C@@H](C)[C@H](Oc2ccc(C(=O)O[C@H]3CCCN(C(=O)[C@H]4COC(=O)C4)C3)cc2)c2ccc(C3CC3)cc2)on1 [Compound 41, [(3S)-1-[(3R)-5-oxotetrahydrofuran-3-carbonyl]-3-piperidyl] 4-[(1R,2S)-1-(4-cyclopropylphenyl)-2-[(3-methylisoxazole-5-carbonyl)amino]propoxy]benzoate] | < 100 | –
< 100 | * (extraction ratio (Eh)>90%) | C[C@H](NC(=O)c1ccno1)[C@H](Oc1ccc(C(=O)O[C@H]2CCCN(C(=O)[C@H]3COC(=O)C3)C2)cc1)c1ccc(C2CC2)cc1 [Compound 54, [(3S)-1-[(3R)-5-oxotetrahydrofuran-3-carbonyl]-3-piperidyl] 4-[(1R,2S)-1-(4-cyclopropylphenyl)-2-(isoxazole-5-carbonylamino)propoxy]benzoate] | < 100 | –
< 100 | * (extraction ratio (Eh)>90%) | C[C@H](NC(=O)c1ccon1)[C@H](Oc1ccc(C(=O)O[C@H]2CCCN(C(=O)[C@H]3COC(=O)C3)C2)cc1)c1ccc(C2CC2)cc1 [Compound 51, [(3S)-1-[(3R)-5-oxotetrahydrofuran-3-carbonyl]-3-piperidyl] 4-[(1R,2S)-1-(4-cyclopropylphenyl)-2-(isoxazole-3-carbonylamino)propoxy]benzoate] | < 100 | –
< 100 | * (extraction ratio (Eh)>90%) | Cc1nnc(C(=O)N[C@@H](C)[C@H](Oc2ccc(C(=O)O[C@H]3CCCN(C(=O)[C@H]4COC(=O)C4)C3)cc2)c2ccc(C3CC3)cc2)o1 [Compound 31, [(3S)-1-[(3R)-5-oxotetrahydrofuran-3-carbonyl]-3-piperidyl] 4-[(1R,2S)-1-(4-cyclopropylphenyl)-2-[(5-methyl-1,3,4-oxadiazole-2-carbonyl)amino]propoxy]benzoate] | < 100 | –
< 100 | * (extraction ratio (Eh)>90%) | C[C@H](NC(=O)C(F)(F)F)[C@H](Oc1ccc(C(=O)N[C@H]2CCCN(C(=O)[C@H]3COC(=O)C3)C2)nc1)c1ccc(C2CC2)cc1 [Compound 2, 5-[(1R,2S)-1-(4-cyclopropylphenyl)-2-[(2,2,2-trifluoroacetyl)amino]propoxy]-N-[(3S)-1-[(3R)-5-oxotetrahydrofuran-3-carbonyl]-3-piperidyl]pyridine-2-carboxamide] | < 100 | –
< 100 | * (extraction ratio (Eh)>90%) | Cc1ncoc1C(=O)N[C@@H](C)[C@H](Oc1ccc(C(=O)O[C@H]2CCCN(C(=O)[C@H]3COC(=O)C3)C2)cc1)c1ccc(C2CC2)cc1 [Compound 33, [(3S)-1-[(3R)-5-oxotetrahydrofuran-3-carbonyl]-3-piperidyl] 4-[(1R,2S)-1-(4-cyclopropylphenyl)-2-[(4-methyloxazole-5-carbonyl)amino]propoxy]benzoate] | 100 to 300 | –
